# Test results from patent publication US5278326A, “Substituted beta-ketoamide ACAT inhibitors” (Warner-Lambert Company, priority 1991, dated 1994).
# Biological target: T1, acyl-CoA: cholesterol acyltransferase (ACAT) (Oryctolagus cuniculus, UniProt G1SFD9)
# T1 construct: in a tissue preparation containing rabbit intestinal microsomes; from tissue; host or cells: rabbit intestinal microsomes
# T1 sequence (G1SFD9 1-524): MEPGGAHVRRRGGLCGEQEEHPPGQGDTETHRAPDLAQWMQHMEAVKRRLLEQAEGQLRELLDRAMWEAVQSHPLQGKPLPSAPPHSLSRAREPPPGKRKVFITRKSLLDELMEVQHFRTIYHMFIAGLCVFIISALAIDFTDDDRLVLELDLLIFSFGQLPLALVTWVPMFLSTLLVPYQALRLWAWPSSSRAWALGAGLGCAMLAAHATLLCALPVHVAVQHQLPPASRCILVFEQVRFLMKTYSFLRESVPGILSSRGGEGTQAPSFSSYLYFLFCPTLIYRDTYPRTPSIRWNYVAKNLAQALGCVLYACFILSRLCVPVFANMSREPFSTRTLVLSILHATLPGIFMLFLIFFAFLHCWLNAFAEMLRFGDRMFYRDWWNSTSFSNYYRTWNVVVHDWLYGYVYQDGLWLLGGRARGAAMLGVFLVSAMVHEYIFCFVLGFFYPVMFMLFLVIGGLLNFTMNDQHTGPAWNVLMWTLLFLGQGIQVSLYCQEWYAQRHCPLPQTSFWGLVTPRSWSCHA
# Assay: in vitro inhibition of ACAT (radiolabeled cholesterol oleate formed from radiolabeled oleic acid, rabbit intestinal microsomes)
# Format: biochemical
# Settings: tissue preparation containing rabbit intestinal microsomes, read-out: IC50 (concentration of test compound required to inhibit the activity of the enzyme by 50%)
# Protocol: The ability of representative compounds of the present invention to inhibit ACAT was measured using an in vitro test more fully described in F. J. Field and R. G. Salone, Biochemica et Biophysica 712:557-570 (1982). The test assesses the ability of a test compound to inhibit the acylation of cholesterol by oleic acid by measuring the amount of radiolabeled cholesterol oleate formed from radiolabeled oleic acid in a tissue preparation containing rabbit intestinal microsomes.
# The data appear in Table 1 where they are expressed as IC50 values; i.e., the concentration of test compound required to inhibit the activity of the enzyme by 50%.
row,SMILES,IC50
1,"CCCCCCCCNC(=O)CC(=O)c1ccc(F)cc1F [Example 12, 2,4-difluoro-N-octyl-β-oxo-benzenepropanamide]",> 1 µM
2,"CCCCCCCCNC(=O)CC(=O)c1c2ccccc2cc2ccccc12 [Example 13, N-octyl-β-oxo-9-anthracenepropanamide]",> 1 µM

# Now from value to molecule:
row,IC50,SMILES
1,0.057 µM,"CC(C)c1cccc(C(C)C)c1NC(=O)CC(=O)CCCCCCCCCCCOC1CCCCO1 (centres unmarked) [Example 6, N-[2,6-bis(1-methylethyl)phenyl]-3-oxo-14-[(tetrahydro-2H-pyran-2-yl)oxy]-tetradecanamide]"
2,0.23 µM,"CC(C)c1cccc(C(C)C)c1NC(=O)CC(=O)CCCCCCCCCCCO [Example 7, N-[2,6-bis(1-methylethyl)phenyl]-14-hydroxy-3-oxo-tetradecanamide]"
3,> 1 µM,"CCCCCCCCCCCC(=O)C(C)(C)C(=O)N(C)c1c(OC)cc(OC)cc1OC [Example 10, N,2,2-trimethyl-3-oxo-N-(2,4,6-trimethoxyphenyl)-tetradecanamide]"
